Test results taken from patent publication US20150111737A1, “SYNERGISTIC PESTICIDAL COMPOSITIONS AND RELATED METHODS” (Dow AgroSciences LLC, priority 2013, published 2015).

Tested on: diamondback moth, Plutella xylostella
Experiment: Cabbage leaf bioassay (track sprayer) against second instar diamondback moth; synergy judged by Colby's equation
Format: in vivo
Details: single active, dose rate 0.0025 weight %, 400 L/Ha spray
Description: The method described in Colby S. R., “Calculating Synergistic and Antagonistic Responses of Herbicide Combinations,” Weeds, 1967, 15, 20-22 was used to determine an existence of synergic effect between the juvenile hormone mimicking compound and the pesticide (I), (II), or any agriculturally acceptable salt thereof in the formulated pesticidal composition. In this method, the percent insect control of the formulated pesticidal composition as observed in the study was compared to the “expected” percent control (E) as calculated by equation (1) (hereinafter “Colby's equation”) below: […]
Bioassays were performed for different active compounds. Cabbage plants with about two to three new-growth-true leaf stage were treated with different active compounds using a track sprayer application at 400 L/Ha spray volume. Three second instar diamondback moths, Plutella xylostella, were infested onto each leaf disc. The percent control of the pesticidal composition against diamondback moth, Plutella xylostella, was determined as the “Observed” action, and compared to those obtained by using about 0.0025 weight % of Compound II, and using about 0.000391 weight % of pyriproxyfen alone. The “Colby's Expected Action” was calculated using Colby's equation as discussed previously. […]
The percent control may be determined some time after treatment.

Row | SMILES | % Control Three Days After Treatment [%]
1 | CCN(C(=O)CCSCCC(F)(F)F)c1cn(-c2cccnc2)nc1Cl [Compound I, N-(3-chloro-1-(pyridin-3-yl)-1H-pyrazol-4-yl)-N-ethyl-3-((3,3,3-trifluoropropyl)thio)propanamide] | 0
2 | CCN(C(=O)CC[S+]([O-])CCC(F)(F)F)c1cn(-c2cccnc2)nc1Cl (centres unmarked) [Compound II, N-(3-chloro-1-(pyridin-3-yl)-1H-pyrazol-4-yl)-N-ethyl-3-((3,3,3-trifluoropropyl)sulfinyl)propanamide] | 0
